Assay results: patent US20230312550A1, “N-(2-(4-CYANOTHIAZOLIDIN-3-YL)-2-OXOETHYL)-QUINOLINE-4-CARBOXAMIDES” (AstraZeneca AB, priority 2020, published 2023)
≈ marks a conversion by molar mass, not a printed value.

Legend:
[1] = target: human Fibroblast activation protein alpha (hFAP) (Homo sapiens (Human), UniProt Q12884); experiment: hFAP inhibition assay (tight binders); format: biochemical; details: Ala-Pro-AMC 20 μM, n = 1 or geometric mean n = 2-6; further: hFAP 2.4 pM
Experimental: The plates were read on a PHERAstar® reader with excitation 340 nm and emission 460 nm. Data were analyzed in Genedata Screener®. IC50 values were determined by plotting % inhibition versus log compound concentration and using a one site dose response model.

[2] = Kinetic solubility; details: kinetic from dmso stock
Experimental: Kinetic solubility was measured as described in Comput Aided Mol Des 2015, 29, 795.

[3] = target: Prolyl endopeptidase, Prolyl Oligopeptidase (hPREP) (Homo sapiens (Human), UniProt P48147); experiment: hPrep inhibition assay; format: biochemical; details: hPREP 0.6 nM, Z-Gly-Pro-amino-methylcoumarin 50 μM; read-out: PREP IC50
Prolyl endopeptidase, Prolyl Oligopeptidase (hPREP), sequence (P48147 whole entry): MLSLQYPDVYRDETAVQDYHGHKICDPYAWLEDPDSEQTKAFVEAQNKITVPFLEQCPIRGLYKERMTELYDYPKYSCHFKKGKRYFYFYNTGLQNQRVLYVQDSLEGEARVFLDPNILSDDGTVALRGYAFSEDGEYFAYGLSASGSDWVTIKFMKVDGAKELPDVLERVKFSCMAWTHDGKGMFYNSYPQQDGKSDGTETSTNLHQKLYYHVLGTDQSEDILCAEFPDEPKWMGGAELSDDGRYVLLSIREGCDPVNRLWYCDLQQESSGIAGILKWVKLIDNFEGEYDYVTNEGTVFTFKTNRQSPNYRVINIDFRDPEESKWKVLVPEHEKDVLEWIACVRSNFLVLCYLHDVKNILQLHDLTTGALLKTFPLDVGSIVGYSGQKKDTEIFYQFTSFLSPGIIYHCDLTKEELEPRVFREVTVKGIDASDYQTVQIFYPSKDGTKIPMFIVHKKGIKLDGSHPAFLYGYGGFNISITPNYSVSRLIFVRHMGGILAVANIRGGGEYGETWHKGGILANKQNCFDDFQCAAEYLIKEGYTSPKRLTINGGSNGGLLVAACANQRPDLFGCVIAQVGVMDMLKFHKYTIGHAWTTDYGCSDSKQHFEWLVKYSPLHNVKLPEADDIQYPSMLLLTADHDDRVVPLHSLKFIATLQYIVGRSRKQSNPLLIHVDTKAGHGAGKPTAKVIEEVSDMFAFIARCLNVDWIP
Outline: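 Recombinant human PREP at 0.6 nM final with Z-Gly-Pro-AMC substrate at 50 μM final in Tris-HCl pH 7.5, NaCl, Triton X-100, glutathione; 15 min rt preincubation then 20 min rt reaction in dark. AMC fluorescence (ex 340/em 460 nm); IC50 from one-site dose-response fit of % inhibition.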

[4] = target: hFAP (M39-A757) (Homo sapiens (Human), UniProt Q12884); experiment: hFAP binding assay (surface plasmon resonance); details: SPR, 20° C.; for hFAP Binding assay k(off) / hFAP Binding assay k(on): single cycle kinetics; for Kd: n = 1 or geometric mean n = 2-4
hFAP (M39-A757), sequence (Q12884 39-757): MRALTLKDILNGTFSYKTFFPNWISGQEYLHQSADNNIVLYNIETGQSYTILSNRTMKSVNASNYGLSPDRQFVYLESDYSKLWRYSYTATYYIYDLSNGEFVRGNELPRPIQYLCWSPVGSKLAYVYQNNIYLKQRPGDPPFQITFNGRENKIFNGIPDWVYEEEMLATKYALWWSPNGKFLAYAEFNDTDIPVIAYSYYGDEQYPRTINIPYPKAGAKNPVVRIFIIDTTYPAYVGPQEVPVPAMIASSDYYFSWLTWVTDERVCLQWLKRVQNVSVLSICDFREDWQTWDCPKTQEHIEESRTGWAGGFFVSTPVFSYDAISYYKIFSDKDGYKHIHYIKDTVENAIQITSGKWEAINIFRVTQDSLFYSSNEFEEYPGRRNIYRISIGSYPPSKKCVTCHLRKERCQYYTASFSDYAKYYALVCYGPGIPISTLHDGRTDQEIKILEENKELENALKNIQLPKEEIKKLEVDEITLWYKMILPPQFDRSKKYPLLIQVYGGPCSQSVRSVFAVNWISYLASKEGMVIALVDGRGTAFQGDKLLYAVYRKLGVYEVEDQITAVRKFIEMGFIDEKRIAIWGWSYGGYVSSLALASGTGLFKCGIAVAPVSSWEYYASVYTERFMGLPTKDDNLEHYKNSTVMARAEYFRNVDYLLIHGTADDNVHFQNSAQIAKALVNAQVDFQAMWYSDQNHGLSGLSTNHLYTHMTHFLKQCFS
Experimental: Compounds were tested in a direct binding assay using 8K surface plasmon resonance biosensor (GE Healthcare) at 20° C. Immobilization of hFAP (M39-A757) on a CMD200M sensor chip (Xantec) was performed using standard amine coupling procedure in immobilization buffer (10 mM HEPES, 150 mM NaCl, 0.05% Tween20, pH 7.4). The surface was washed with 10 mM NaOH, 1M NaCl before being activated with EDC/NHS (GE Healthcare), followed by immobilization of hFAP (in 10 mM Acetate pH 5.0). Finally, the surface was deactivated by ethanolamine. Immobilization levels of hFAP were around 4000-6000 RU. The reference spot was treated as described, omitting the injection of hFAP. Compound concentration series were injected over the immobilized protein in increasing concentrations (2-500 nM) using single cycle kinetics in running buffer (20 mM TRIS, 150 mM NaCl, 0.05% Tween20, 1% DMSO, pH 7.4). Interaction models were fitted globally to the experimental traces, enabling determination of kon, koff and Kd.

[5] = Caco-2 cell permeability; details: human
Experimental: Caco-2 cell permeability was measured as described in Mol Pharm 2017, 14, 1601.

[6] = Metabolic stability in rat hepatocytes (rHep); details: n = 1 or geometric mean of n = 2-3
[7] = Metabolic stability in human liver microsomes (HLM); details: human
Experimental: Metabolic stability in HLM was measured as described in J Comput Aided Mol Des 2015, 29, 795.

[8] = Solubility, kinetic solubility, n = 1 or average of n = 2-3
[9] = HLM CLint, n = 1 or average of n = 2-3

human Fibroblast activation protein alpha (hFAP), sequence (Q12884 38-760): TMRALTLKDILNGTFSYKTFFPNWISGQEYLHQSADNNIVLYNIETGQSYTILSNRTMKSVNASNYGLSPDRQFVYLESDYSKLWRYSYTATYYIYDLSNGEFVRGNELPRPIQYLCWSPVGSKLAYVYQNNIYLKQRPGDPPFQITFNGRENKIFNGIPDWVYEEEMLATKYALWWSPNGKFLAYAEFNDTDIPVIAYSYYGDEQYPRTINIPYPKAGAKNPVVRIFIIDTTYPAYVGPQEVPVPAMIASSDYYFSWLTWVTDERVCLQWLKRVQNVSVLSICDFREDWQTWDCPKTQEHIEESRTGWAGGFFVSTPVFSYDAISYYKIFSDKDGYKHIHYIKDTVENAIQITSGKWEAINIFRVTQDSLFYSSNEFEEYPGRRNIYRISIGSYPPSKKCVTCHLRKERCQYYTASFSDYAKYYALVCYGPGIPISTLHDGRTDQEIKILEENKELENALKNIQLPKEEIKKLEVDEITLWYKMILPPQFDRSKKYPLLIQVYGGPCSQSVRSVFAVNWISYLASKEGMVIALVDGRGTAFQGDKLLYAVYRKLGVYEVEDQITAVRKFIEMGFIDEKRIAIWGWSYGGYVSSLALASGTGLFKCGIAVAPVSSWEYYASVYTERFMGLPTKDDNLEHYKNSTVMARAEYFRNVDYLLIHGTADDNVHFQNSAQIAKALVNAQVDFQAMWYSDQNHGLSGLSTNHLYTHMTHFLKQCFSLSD

Compound	IC50 [1]	solubility [2, 8]	IC50 [3]	hFAP Binding assay k(off) [4]	hFAP Binding assay k(on) [4]	Kd [4]	Papp A→B [5]	Papp B→A [5]	efflux ratio [5]	rHep CLint [6]	microsomal CLint [7, 9]	Papp [5]	solubility [2]	microsomal CLint [7]
CC1(C)CCCN(c2ccc3nccc(C(=O)NCC(=O)N4CSC[C@H]4C#N)c3c2)C1=O [Example 15, (R)—N-(2-(4-Cyanothiazolidin-3-yl)-2-oxoethyl)-6-(3,3-dimethyl-2-oxopiperidin-1-yl)quinoline-4-carboxamide]	0.12 nM	890 µM (≈ 402 µg/mL)	2100 nM	0.000046 s⁻¹	490000 M⁻¹ s⁻¹	0.11 nM	0.3 ×10⁻⁶ cm/s	13 ×10⁻⁶ cm/s	45	11 μL/min/1E6	43 µL/min/mg			
C[C@]1(F)CCN(c2ccc3nccc(C(=O)NCC(=O)N4CSC[C@H]4C#N)c3c2)C1 (mixture of isomers) [Example 198, N-(2-((R)-4-Cyanothiazolidin-3-yl)-2-oxoethyl)-6-((RS)-3-fluoro-3-methylpyrrolidin-1-yl)quinoline-4-carboxamide]	0.056 nM	38 µM	410 nM	0.00011 s⁻¹	2900000 M⁻¹ s⁻¹	0.038 nM	3.4 ×10⁻⁶ cm/s	36 ×10⁻⁶ cm/s	11	22 μL/min/1E6	20 µL/min/mg			
N#C[C@@H]1CSCN1C(=O)CNC(=O)c1ccnc2ccc(N3C[C@@H]4C[C@H]3CO4)cc12 [Example 75, 6-((1S,4S)-2-Oxa-5-azabicyclo[2.2.1]heptan-5-yl)-N-(2-((R)-4-cyano-thiazolidin-3-yl)-2-oxoethyl)quinoline-4-carboxamide]	0.05 nM	930 µM (≈ 394 µg/mL)	490 nM	0.000024 s⁻¹	2300000 M⁻¹ s⁻¹	0.0063 nM	0.77 ×10⁻⁶ cm/s	17 ×10⁻⁶ cm/s	21	6.7 μL/min/1E6	9 µL/min/mg			
CCC1(O)CCN(c2ccc3nccc(C(=O)NCC(=O)N4CSC[C@H]4C#N)c3c2)CC1 [Example 189, (R)—N-(2-(4-Cyanothiazolidin-3-yl)-2-oxoethyl)-6-(4-ethyl-4-hydroxy-piperidin-1-yl)quinoline-4-carboxamide]	0.056 nM	840 µM (≈ 381 µg/mL)	440 nM	0.000051 s⁻¹	2600000 M⁻¹ s⁻¹	0.02 nM	0.29 ×10⁻⁶ cm/s	13 ×10⁻⁶ cm/s	46	<1 μL/min/1E6	11 µL/min/mg			
C[C@@H]1CCN(c2ccc3nccc(C(=O)NCC(=O)N4CSC[C@H]4C#N)c3c2)C1=O (single isomer, unassigned) [Example 202, N-(2-((R)-4-Cyanothiazolidin-3-yl)-2-oxoethyl)-6-((R*)-3-methyl-2-oxopyrrolidin-1-yl)quinoline-4-carboxamide]	0.044 nM	140 µM (≈ 59.3 µg/mL)	550 nM	0.000070 s⁻¹	1600000 M⁻¹ s⁻¹	0.043 nM				<1 μL/min/1E6	7.7 µL/min/mg	5.2 ×10⁻⁶ cm/s		
CCC1(O)CN(c2ccc3nccc(C(=O)NCC(=O)N4CSC[C@H]4C#N)c3c2)C1 [Example 154, (R)—N-(2-(4-Cyanothiazolidin-3-yl)-2-oxoethyl)-6-(3-ethyl-3-hydroxy-azetidin-1-yl)quinoline-4-carboxamide]	0.092 nM	850 µM (≈ 362 µg/mL)	590 nM	0.000054 s⁻¹	910000 M⁻¹ s⁻¹	0.059 nM	0.32 ×10⁻⁶ cm/s	12 ×10⁻⁶ cm/s	37	2.7 μL/min/1E6	< 3 µL/min/mg			
CC1(C(F)F)CN(c2ccc3nccc(C(=O)NCC(=O)N4CSC[C@H]4C#N)c3c2)C1 [Example 135, (R)—N-(2-(4-Cyanothiazolidin-3-yl)-2-oxoethyl)-6-(3-(difluoromethyl)-3-methylazetidin-1-yl)quinoline-4-carboxamide]	0.11 nM	310 µM (≈ 138 µg/mL)	500 nM	0.000023 s⁻¹	1700000 M⁻¹ s⁻¹	0.013 nM	4.4 ×10⁻⁶ cm/s	29 ×10⁻⁶ cm/s	6.5	6.8 μL/min/1E6	23 µL/min/mg			
N#C[C@@H]1CSCN1C(=O)CNC(=O)c1ccnc2ccc(N3C[C@H]4C[C@@H]3CO4)cc12 [Example 76, 6-((1R,4R)-2-Oxa-5-azabicyclo[2.2.1]heptan-5-yl)-N-(2-((R)-4-cyano-thiazolidin-3-yl)-2-oxoethyl)quinoline-4-carboxamide]	0.08 nM	> 1000 µM	510 nM	0.000052 s⁻¹	1000000 M⁻¹ s⁻¹	0.051 nM	0.64 ×10⁻⁶ cm/s	20 ×10⁻⁶ cm/s	31	3.5 μL/min/1E6	4.2 µL/min/mg			
CC1(C)CCN(c2ccc3nccc(C(=O)NCC(=O)N4CSC[C@H]4C#N)c3c2)C1=O [Example 12, (R)—N-(2-(4-Cyanothiazolidin-3-yl)-2-oxoethyl)-6-(3,3-dimethyl-2-oxopyrrolidin-1-yl)quinoline-4-carboxamide]	0.065 nM	830 µM (≈ 363 µg/mL)	510 nM	0.000064 s⁻¹	1900000 M⁻¹ s⁻¹	0.038 nM	0.29 ×10⁻⁶ cm/s	19 ×10⁻⁶ cm/s	65	<1 μL/min/1E6	6.4 µL/min/mg			
N#C[C@@H]1CSCN1C(=O)CNC(=O)c1ccnc2ccc(N3CC4(CC(F)C4)C3)cc12 [Example 155, (R)—N-(2-(4-Cyanothiazolidin-3-yl)-2-oxoethyl)-6-(6-fluoro-2-azaspiro[3.3]heptan-2-yl)quinoline-4-carboxamide]	0.086 nM		380 nM	0.000050 s⁻¹	3100000 M⁻¹ s⁻¹	0.016 nM	4.2 ×10⁻⁶ cm/s	27 ×10⁻⁶ cm/s	6.5	3.2 μL/min/1E6			400 µM (≈ 176 µg/mL)	19 µL/min/mg
N#C[C@@H]1CSCN1C(=O)CNC(=O)c1ccnc2ccc(N3CCOC(F)(F)C3)cc12 [Example 4, (R)—N-(2-(4-Cyanothiazolidin-3-yl)-2-oxoethyl)-6-(2,2-difluoromorpholino)-quinoline-4-carboxamide]	0.058 nM	55 µM (≈ 24.6 µg/mL)	1100 nM	0.000094 s⁻¹	1200000 M⁻¹ s⁻¹	0.079 nM	1.6 ×10⁻⁶ cm/s	28 ×10⁻⁶ cm/s	18	14 μL/min/1E6	50 µL/min/mg			
